Where a name gives a salt, the structure may show the parent alone.
Tested on: mice
Test: Neuropharmacological Assay (SmartCube): automated behavioral signature of compound-treated mice compared with a database of reference drug classes
Format: in vivo
Settings: for AG / AN / CE / HL / MS / PS / SH / UK / AD / AP / AX: probability that activity matches this class of agents, 3.0 mg/kg i.p., 15 min before test
Description: Neurosci. 2011 Sep. 9; 5: 103 (doi: 10.3389/fnins.2011.00103) (“Roberds”). As reported in Roberds, because psychiatric diseases generally result from disorders of cell-cell communication or circuitry, intact systems are useful in detecting improvement in disease-relevant endpoints. These endpoints are typically behavioral in nature, often requiring human observation and interpretation. To facilitate testing of multiple compounds for behavioral effects relevant to psychiatric disease, PsychoGenics, Inc. (Tarrytown, NY, “PGI”) developed SmartCube™ an automated system in which behaviors of compound-treated mice are captured by digital video and analyzed with computer algorithms. (D. Brunner et al. Drug Discov. Today 2002, 7:S107-S112). PGI Analytical Systems uses data from SmartCube™ to compare the behavioral signature of a test compound to a database of behavioral signatures obtained using a large set of diverse reference compounds. (The composition of the database as well as validation of the method is further described in Roberds). In this way, the neuropharmacological effects of a test compound can be predicted by similarity to major classes of compounds, such as antipsychotics, anxiolytics and antidepressants.
The SmartCube™ system produces an activity signature indicating the probability that the activity of the test compound at the administered dose matches a given class of neuropharmacological agents. (See, e.g., Roberds, FIGS. 2 and 3). The test compound is simultaneously compared against multiple classes of agents; thus, a separate probability is generated for each behavioral effect measured (e.g., anxiolytic activity, analgesic activity, etc.). In table 2 below, these probabilities are reported for each behavioral effect measured as described in Table 1 below.
Provided compounds were dissolved in a mixture of Pharmasolve™ (N-methyl-2-pyrrolidone), polyethylene glycol and propylene glycol, and were injected i.p. 15 min. before the behavioral test. For each compound, injections were administered at 3 different doses. For each behavioral effect measured, results for the 3.0 mg/kg dose are presented. The potency of many of the compounds in the table was also determined in the SmartCube™ system. Test compounds were routinely examined at dose levels of 0.3, 1, 3 and 10 mg per kg (mpk), although the dose range was increased or decreased, if necessary, to obtain a full dose response curve. A compound's minimal effective dose (MED) is a measure of the compound's potency. The MED was defined as the dose (in mpk) having 45% or more total activity in SmartCube. If only one dose was tested, that dose is shown in the MED column of Table 2 even though the dose is not known to be the MED.

[1] = dose having 45% or more total activity in SmartCube, i.p., if only one dose was tested, that dose is shown, hydrochloride

Structure (SMILES)	MED (minimal effective dose) [1] [mpk]	AG	AN	CE	HL	MS	PS	SH	UK	AD (hydrochloride, 3 mg/kg)	AP (hydrochloride, 3 mg/kg)	AX (hydrochloride, 3 mg/kg)	AP	CE (hydrochloride, 3 mg/kg)	UK (hydrochloride, 3 mg/kg)	minimal effective dose (Mus musculus, ip, dose having 45% or more total activity in SmartCube, i.p., if only one dose was tested, that dose is shown, read-out: MED (minimal effective dose)) [mg/kg]	AD	AX	MED (minimal effective dose) (dose having 45% or more total activity in SmartCube, i.p., if only one dose was tested, that dose is shown) [mpk]	SH (hydrochloride, 3 mg/kg)
Cl.c1cc2c(s1)CC(N1CCCC1)CC2 (single isomer, unassigned) [Compound 18, 1-(4,5,6,7-tetrahydrobenzothiophen-6-yl)pyrrolidine hydrochloride]	0.3	ND (^ <4%)	ND (^ <4%)	ND (^ <4%)	ND (^ <4%)	ND (^ <4%)	ND (^ <4%)	ND (^ <4%)	ND (^ <4%)	++++ (≥74%)	+ (≥4%)	ND (^ <4%)	–	–	–	–	–	–	–	–
CNC1Cc2ccsc2C1.Cl (single isomer, unassigned) [Compound 19, N-methyl-5,6-dihydro-4H-cyclopenta[b]thiophen-5-amine hydrochloride]	3.0	ND (^ <4%)	ND (^ <4%)	–	ND (^ <4%)	ND (^ <4%)	ND (^ <4%)	ND (^ <4%)	–	++ (≥24%)	–	++ (≥24%)	+ (≥4%)	ND (^ <4%)	+ (≥4%)	–	–	–	–	–
CNC1Cc2ccsc2C1.Cl (single isomer, unassigned) [Compound 20, N-methyl-5,6-dihydro-4H-cyclopenta[b]thiophen-5-amine hydrochloride]	1.0	ND (^ <4%)	ND (^ <4%)	–	ND (^ <4%)	ND (^ <4%)	ND (^ <4%)	ND (^ <4%)	–	++++ (≥74%)	–	+ (≥4%)	+ (≥4%)	+ (≥4%)	ND (^ <4%)	–	–	–	–	–
Cl.c1cc2c(s1)CC(N1CCOCC1)CC2 (single isomer, unassigned) [Compound 22, 4-(4,5,6,7-tetrahydrobenzo[b]thiophen-6-yl)morpholine hydrochloride]	–	ND (^ <4%)	ND (^ <4%)	ND (^ <4%)	ND (^ <4%)	ND (^ <4%)	ND (^ <4%)	ND (^ <4%)	–	–	–	–	ND (^ <4%)	–	+ (≥4%)	> 10	ND (^ <4%)	ND (^ <4%)	–	–
Cl.c1cc2c(s1)CC(N1CCOCC1)CC2 (single isomer, unassigned) [Compound 23, 4-(4,5,6,7-tetrahydrobenzo[b]thiophen-6-yl)morpholine hydrochloride]	–	ND (^ <4%)	ND (^ <4%)	ND (^ <4%)	ND (^ <4%)	ND (^ <4%)	ND (^ <4%)	ND (^ <4%)	–	–	–	–	ND (^ <4%)	–	ND (^ <4%)	–	ND (^ <4%)	ND (^ <4%)	>10	–
CNC1CCCc2ccsc2C1.Cl (single isomer, unassigned) [Compound 25, N-methyl-5,6,7,8-tetrahydro-4H-cyclohepta[b]thiophen-7-amine hydrochloride]	1.0	ND (^ <4%)	ND (^ <4%)	–	ND (^ <4%)	ND (^ <4%)	ND (^ <4%)	–	–	–	++++ (≥74%)	–	–	ND (^ <4%)	ND (^ <4%)	–	ND (^ <4%)	ND (^ <4%)	–	ND (^ <4%)
CNC1CCCc2ccsc2C1.Cl (single isomer, unassigned) [Compound 26, N-methyl-5,6,7,8-tetrahydro-4H-cyclohepta[b]thiophen-7-amine hydrochloride]	3.0	ND (^ <4%)	ND (^ <4%)	–	ND (^ <4%)	ND (^ <4%)	ND (^ <4%)	–	–	–	ND (^ <4%)	–	–	+ (≥4%)	++ (≥24%)	–	ND (^ <4%)	ND (^ <4%)	–	+ (≥4%)
CNC1CCc2cc(C)sc2C1 (single isomer, unassigned) [Compound 28, N, 2-dimethyl-4,5,6,7-tetrahydrobenzothiophen-6-amine hydrochloride]	3.0	ND (^ <4%)	ND (^ <4%)	ND (^ <4%)	ND (^ <4%)	ND (^ <4%)	ND (^ <4%)	ND (^ <4%)	–	+++ (≥49%)	ND (^ <4%)	–	–	–	ND (^ <4%)	–	–	++ (≥24%)	–	–
CNC1CCc2cc(C)sc2C1 (single isomer, unassigned) [Compound 29, N, 2-dimethyl-4,5,6,7-tetrahydrobenzothiophen-6-amine hydrochloride]	1.0	ND (^ <4%)	ND (^ <4%)	ND (^ <4%)	ND (^ <4%)	ND (^ <4%)	ND (^ <4%)	ND (^ <4%)	–	ND (^ <4%)	+++ (≥49%)	–	–	–	+ (≥4%)	–	–	++ (≥24%)	–	–
CNC1CCc2c(C)sc(C)c2C1 (single isomer, unassigned) [Compound 30, N, 1,3-trimethyl-4,5,6,7-tetrahydro-2-benzothiophen-5-amine hydrochloride]	0.3	ND (^ <4%)	ND (^ <4%)	ND (^ <4%)	ND (^ <4%)	ND (^ <4%)	ND (^ <4%)	–	ND (^ <4%)	–	++++ (≥74%)	ND (^ <4%)	–	–	–	–	ND (^ <4%)	–	–	+ (≥4%)
CNC1CCc2c(C)sc(C)c2C1 (single isomer, unassigned) [Compound 31, N, 1,3-trimethyl-4,5,6,7-tetrahydro-2-benzothiophen-5-amine hydrochloride]	3.0	ND (^ <4%)	ND (^ <4%)	ND (^ <4%)	ND (^ <4%)	ND (^ <4%)	ND (^ <4%)	–	ND (^ <4%)	–	+++ (≥49%)	++ (≥24%)	–	–	–	–	ND (^ <4%)	–	–	ND (^ <4%)
CNC1CCc2c(csc2C)C1 (single isomer, unassigned) [Compound 32, N, 1-dimethyl-4,5,6,7-tetrahydro-2-benzothiophen-5-amine hydrochloride]	1.0	ND (^ <4%)	ND (^ <4%)	ND (^ <4%)	ND (^ <4%)	ND (^ <4%)	ND (^ <4%)	ND (^ <4%)	ND (^ <4%)	–	+ (≥4%)	++ (≥24%)	–	–	–	–	+++ (≥49%)	–	–	–
CNC1CCc2c(csc2C)C1 (single isomer, unassigned) [Compound 33, N, 1-dimethyl-4,5,6,7-tetrahydro-2-benzothiophen-5-amine hydrochloride]	0.3	ND (^ <4%)	ND (^ <4%)	ND (^ <4%)	ND (^ <4%)	ND (^ <4%)	ND (^ <4%)	ND (^ <4%)	ND (^ <4%)	–	++ (≥24%)	ND (^ <4%)	–	–	–	–	+++ (≥49%)	–	–	–

Source: patent US20260274814A1, “THIENYL COMPOUNDS FOR THE TREATMENT OF A CENTRAL NERVOUS SYSTEM DISEASE OR DISORDER” (Coreterra Therapeutics, Inc., priority 2023, published 2026)
